Source: patent publication US20030083266A1 (priority 2002, published 2003)

How the values were obtained:
[1] = test system: endogenous reduced glutathione (GSH); assay: In vivo antioxidation: striatum/serum endogenous GSH after IP injection; set-up: species or system Balb/c mice; settings: mice, injected IP, 100-300 mg/kg, three hours post injection
Description: With reference now to FIG. 3. To this end, three groups of two months old Balb/c mice containing two animals in each group were injected intraperitonealy (IP) with 100-300 mg/kg body weight of compound A. Blood samples were drawn from the tail three hours post injection and then the animals were sacrificed and either the corpus striatum or the whole brain were removed and analyzed for GSH levels.
GSH levels were determined using the experimental procedures as described hereinbelow and/or the GSH-400 kit (Oxis International, Inc.).
Preparation of brain homogenates: Animals were rapidly killed and exsanguinated to remove excess blood from the brain. The brain of each animal was rinsed in a beaker containing water, lightly blotted to dry and were weighted. The striatums were transferred into a hand-homogenizer tube and each was homogenized using a constant number (e.g., 20) of up and down strokes of the hand-homogenizer pestle. Each of the homogenates was poured into a centrifuge tube and centrifuged for 10,000×g for 5 min. The supernatant was used for GSH determination as follows.
GSH Assay: For each measurement, 200 μl of sample were incubated with 20 μl DTNB [5,5′ dithio bis(2-nitrobenzoic acid)] for 1 hour in 37° C. Final absorbance was measured at 400 nm. Similar results were obtained using the GSH-400 kit. […]

PC12 cells [2] = assay: In vitro extracellular antioxidation: [3H]-thymidine uptake by PC12 cells under dopamine oxidative stress; type: cell-based; settings: 0.5 mM dopamine 24 hours
Description: Compounds A-D were assayed in vitro for their extracellular antioxidant activities. The assays were carried out with PC12 cells (Offen et al., 1996) subjected to a high dose of dopamine which confers oxidative stress to these cells by forming oxidation products during its oxidation in the growth medium, i.e., extracellularly.
With reference now to FIG. 1. To this end, PC12 cells were subjected to high concentration of dopamine (0.5 mM) for 24 hours in the presence of increasing concentrations (0 mM, 0.03 mM, 0.1 mM, 0.3 mM and 0.9 mM) of the various compounds A-D. [^3H]-thymidine was added to the cells (1 μCi/100,000 cells) six hours before the end of the 24 hours period. Due to the high lipophylicity of compounds A-D, the compounds were first dissolved in dimethyl sulfoxide (DMSO) and then in water and were applied to the cells in a final concentration of 3% DMSO. The effect of 3% DMSO on the cells was tested separately and the values presented in FIG. 1 are after the appropriate corrections.
[^3H]-thymidine uptake was measured in triplicate wells containing cells pretreated with dopamine alone and dopamine with each of compounds A-D at the concentrations as indicated above. The results presented in FIG. 1 show the mean of triplicate wells taken from three independent cell batches, wherein control represent cells treated only with 3% DMSO and is defined as 100% [^3H]-thymidine uptake (not shown).

PC12 cells [3] = assay: In vitro intracellular antioxidation: [3H]-thymidine uptake by PC12 cells under 6-hydroxy-dopamine oxidative stress; type: cell-based; settings: 0.5 mM 6-hydroxy-dopamine 24 hour
Description: One of the main characteristics of the oxidative effects in PC12 cells are mimicked by 6-hydroxy-dopamine which is a false neurotransmitter taken up by the cells. Therefore, 6-hydroxy-dopamine was used as another oxidative agent and tested the protective antioxidant efficiencies of compounds A-D within the cells.
With reference now to FIG. 2. To this end, PC12 cells were subjected to high concentration (0.5 mM) of 6-hydroxy-dopamine (6-HO-DA) for 24 hour, in the presence of 0.3 mM or 0.8 mM of compounds A-D or 1 mM of reduced glutathione (GSH) a natural antioxidant, as shown in the front row of FIG. 2. A similar set of cells was treated with the same concentrations of compounds A-D and of reduced glutathione, yet without 6-hydroxy-dopamine, as shown in the back row of FIG. 2. Due to the high lipophylicity of the antioxidants used, they were first dissolved in dimethyl sulfoxide (DMSO), then in water and were applied to the cells in a final concentration of 3% DMSO. [^3H]-thymidine was added to the cells (1 μCi/100,000 cells) six hours prior to the end of the 24 hour period.
The results presented in FIG. 2 are the mean of triplicate wells taken from three independent cell batches, wherein control represent untreated cells and is defined as 100% [^3H]-thymidine uptake. The effect of DMSO on the cells was tested separately as shown.

[4] = test system: Neuroblastoma SHSY5Y (NB) cells; assay: Protection from oxidative stress in vitro, neutral red survival assay; type: cell-based
Description: Protection from oxidative stress in vitro: Neuroblastoma SHSY5Y (NB) cells were maintained in Dulbeco's Modified Eagle's Medium (DMEM), supplemented with 8% FCS and 8% horse serum, penicillin (25 μg/ml), streptomycin (25 μg/ml), 2 mM L-glutamine and 400 μg/ml G418 (Gibco/BRL). For protection experiments cells were subcultured (in 2% serum) to poly-L-lysine-coated 96-well microtiter plates (Nunc), 100 μl of 5×10^5 cells/ml, CEA was applied to the cells in each well and 4 hours later DA, L-dopa (levodopa), 6-OHDA and MPP+ were added for 24 hours.
Survival was assayed by adding neutral red (0.34%, Sigma) to cells in DCCM-1 medium (0.1 ml/well, Bet-Haemek) and incubation for 2 hour at 37° C. The cells were then washed with cold PBS containing 10 mM MgCl2 and the dye was dissolved in 50% ethanol in 50% Somerson buffer (70 mM sodium citrate, 30 mM citric acid, 0.1 N HCl). ELISA reader (590 nm) was used to measure the remaining color intensity.

[5] = Crossing the blood-brain-barrier: compound level in brain extracts by HPLC after IP injection; type: in vivo, C57BL/6J mice; settings: mice
Description: Detection of compound j (referred to in this Example also as CEA) was established using high performance liquid chromatography (HPLC). To this end, CEA was treated with a fluorescent thiolyte reagent (monobromobimane reagent) and analyzed on an HPLC column.
Crossing the blood-brain-barrier: In vivo experiments were carried out on C57BL/6J mice (15 grams) injected IP with compound J. After incubation (15 min, 60 min or 4 hours) the mice were anesthetized with ether and blood samples were drawn. Then mice underwent perfusion with 50 ml of saline, injected into the right ventricle. The levels of […] in the brain and in the plasma were detected by selective fluorescent labeling using high performance liquid chromatography (HPLC).
Increasing amounts of compound J were injected IP and 15 min later, mice were perfused with saline and compound J levels in the brain extracts were determined by HPLC chromatography (FIG. 5b), as compared to a control, pure, uninjected compound J (FIG. 5a).

GSH = assay: Brain GSH levels after IP injection of compound J (HPLC); type: in vivo, C57BL/6J mice; settings: mice brain extract after IP injection

CCOC(=O)[C@H](CS)NC(C)=O [compound A, N-acetyl cysteine ethyl ester]
Crossing of the blood brain barrier [1]: crosses the blood brain barrier
Level of endogenous GSH at the striatum [1]: increases the level of endogenous GSH

CCOC(=O)C(NC(C)=O)C(C)(C)S (stereo not shown) [compound B, N-acetyl-penicillamine ethyl ester]
Increase of [3H]-thymidine uptake (PC12 cells [2]; compound at 0.03 mM): Ca. 1.5

CC(=O)N[C@H](C(=O)O)C(C)(C)S [compound C, N-acetyl-β,β-dimethyl cysteine]
Increase of [3H]-thymidine uptake of 6-hydroxy-dopamine treated cells (PC12 cells [3]; compound at 0.3 mM): Ca. 1.5

CCOC(=O)CNC(=O)C(CS)NC(=O)CCC(N)C(=O)O (stereo not shown) [compound D, Glutathione ethyl ester]
Increase of [3H]-thymidine uptake (PC12 cells [2]; compound at 0.03 mM): Ca. 2.5
Increase of [3H]-thymidine uptake (PC12 cells [2]; compound at 0.1 mM): Ca. 2.5
Increase of [3H]-thymidine uptake of 6-hydroxy-dopamine treated cells (PC12 cells [3]; compound at 0.3 mM): Ca. 3.5
Increase of [3H]-thymidine uptake of 6-hydroxy-dopamine treated cells (PC12 cells [3]; compound at 0.8 mM): Ca. 3.5

CC(=O)NC(CS)C(N)=O (stereo not shown) [compound J]
Cell survival ([4]; 0.3 mM compound, neutral red assays): up to 95%
Protection of cells against toxicity (>50%) of DA, L-dopa, 6-OHDA and MPP+ ([4]; compound at 0.1 mM, DA, L-dopa, 6-OHDA 0.1-0.25 mM, MPP+ 0.5-2 mM, 24 hours): protect the cells
Compound level in the brain ([5]; IP injection 0.25-4 mg, 15 min, brain extracts): concentration-dependent increase
Crossing of the BBB ([5]; IP injection, fluorescent labeling and HPLC): crosses the BBB
Increase of GSH levels over untreated animals (GSH): up to 46%
